Results published in PMC7031696 (Cell chemical biology, 2019).
Like-named read-outs stand apart in the source and are kept apart here.

Key:
[1] = tested on: Plasmodium falciparum 3D7-A10 parasites; experiment: Stage specificity assay (8-h exposure of synchronized stages, IC50^8h); format: cell-based; details: for IC50: Plasmodium falciparum
[2] = tested on: asynchronous 3D7-A10 parasite cultures; experiment: Standard 72-h exposure asexual blood stage susceptibility assay (IC50^72h); format: cell-based, Plasmodium falciparum; details: Plasmodium falciparum, 3D7, 72 h, read-out: Overall (72hr assay) Mean IC50 (IC50^72h)
[3] = tested on: 3D7-MR4 trophozoite parasite-infected RBCs; experiment: Metabolomic profiling (hydrophilic metabolite changes, UHPLC-MS); format: cell-based, Plasmodium falciparum

Compound: O=C(Nc1ccsc1C(=O)NC1CCCCC1)c1ccc(F)cc1 [MMV665939]
- Ratio lowest IC50 8hr/IC50 72hr ([1]; 3D7-A10): 28.2
- IC50 ([1]; 3D7, read-out: Early rings Mean IC50 (IC50^8h), 8-h exposure 0–8 hr, 3D7-A10, survival at 60 h): 17 µM
- IC50 ([1]; 3D7, read-out: Early trophozoites Mean IC50 (IC50^8h), 8-h exposure 16–24 hr, 3D7-A10, survival at 60 h): 13.5 µM
- IC50 ([1]; 3D7, read-out: Late rings Mean IC50 (IC50^8h), 8-h exposure 8–16 hr, 3D7-A10, survival at 60 h): 22.9 µM
- IC50 ([1]; 3D7, read-out: Late trophozoites Mean IC50 (IC50^8h), 8-h exposure 24–32 hr, 3D7-A10, survival at 60 h): 39 µM
- IC50 ([1]; 3D7, read-out: Schizonts Mean IC50 (IC50^8h), 8-h exposure 32–40 hr, 3D7-A10, survival at 60 h): 54.4 µM
- IC50^8h relative to IC50^72h value ([1]; most susceptible stages): > 28 fold
- IC50 [2]: 0.478 µM
- Log2(fold changes) 3-phosphoglycerate ([3]; metabolite 3-phosphoglycerate, log2 fold change): -0.3920
- Log2(fold changes) 4-Pyridoxic acid ([3]; metabolite 4-Pyridoxic acid, log2 fold change): -0.0874
- Log2(fold changes) 4-aminobutyrate ([3]; metabolite 4-aminobutyrate, log2 fold change): -0.3253
- Log2(fold changes) 4-phosphopantetheine ([3]; metabolite 4-phosphopantetheine, log2 fold change): 0.0000
- Log2(fold changes) 4-phosphopantothenate ([3]; metabolite 4-phosphopantothenate, log2 fold change): -0.8024
- Log2(fold changes) 5-aminopentanoic acid ([3]; metabolite 5-aminopentanoic acid, log2 fold change): 0.0000
- Log2(fold changes) 5-methyl-THF ([3]; metabolite 5-methyl-THF, log2 fold change): 0.0000
- Log2(fold changes) 5-phosphoribosyl-1-pyrophosphate ([3]; metabolite 5-phosphoribosyl-1-pyrophosphate, log2 fold change): 0.0000
- Log2(fold changes) 6-phospho-D-gluconate ([3]; metabolite 6-phospho-D-gluconate, log2 fold change): -0.2234
- Log2(fold change) HVDD ([3]; metabolite HVDD): -0.9968
- Log2(fold change) Hydroxyisocaproic acid ([3]; metabolite Hydroxyisocaproic acid): 0.0000
- Log2(fold change) IDP ([3]; metabolite IDP): 0.0000
- Log2(fold change) IMP ([3]; metabolite IMP): 0.0265
- Log2(fold change) Inositol ([3]; metabolite Inositol): 0.0000
- Log2(fold change) Isopentyl-PP ([3]; metabolite Isopentyl-PP): -0.3712
- Log2(fold change) L-arginino-succinate ([3]; metabolite L-arginino-succinate): -0.4465
- Log2(fold change) LD ([3]; metabolite LD): -0.2140
- Log2(fold change) Myristoyl/tetradecanoyl-CoA ([3]; metabolite Myristoyl/tetradecanoyl-CoA): 0.0000
- Log2(fold change) N-Acetyl-L-alanine ([3]; metabolite N-Acetyl-L-alanine): 1.1605
- Log2(fold change) N-acetyl-L-ornithine ([3]; metabolite N-acetyl-L-ornithine): -0.6303
- Log2(fold change) N-acetyl-glucosamine-1/6-phosphate ([3]; metabolite N-acetyl-glucosamine-1/6-phosphate): 0.0837
- Log2(fold change) N-acetyl-glutamate ([3]; metabolite N-acetyl-glutamate): -0.0309
- Log2(fold change) N-acetyl-glutamine ([3]; metabolite N-acetyl-glutamine): 0.1208
- Log2(fold change) N-carbamoyl-L-aspartate ([3]; metabolite N-carbamoyl-L-aspartate): 0.2551
- Log2(fold change) NAD+ ([3]; metabolite NAD+): -0.2042
- Log2(fold change) NADH ([3]; metabolite NADH): 0.1443
- Log2(fold change) NADP+ ([3]; metabolite NADP+): -0.0542
- Log2(fold change) NADPH ([3]; metabolite NADPH): 0.2171
- Log2(fold change) O-acetyl-L-serine ([3]; metabolite O-acetyl-L-serine): -0.2734
- Log2(fold change) Octoluse 8/1P ([3]; metabolite Octoluse 8/1P): -0.3337
- Log2(fold change) Octoluse Bisphosphate ([3]; metabolite Octoluse Bisphosphate): -0.2536
- Log2(fold change) PD ([3]; metabolite PD): -0.8727
- Log2(fold change) PE ([3]; metabolite PE): -0.7610
- Log2(fold change) PEE ([3]; metabolite PEE): -0.6388
- Log2(fold change) PEEK ([3]; metabolite PEEK): -0.8443
- Log2(fold change) PVNF ([3]; metabolite PVNF): -0.9198
- Log2(fold change) Pyroglutamic acid ([3]; metabolite Pyroglutamic acid): 0.4907
- Log2(fold change) Pyrophosphate ([3]; metabolite Pyrophosphate): 0.0000
- Log2(fold change) Ribose-5-phosphate ([3]; metabolite Ribose-5-phosphate): -0.6260
- Log2(fold change) S-adenosyl-L-homocysteine ([3]; metabolite S-adenosyl-L-homocysteine): 0.0358
- Log2(fold change) S-adenosyl-L-methioninamine ([3]; metabolite S-adenosyl-L-methioninamine): -2.1855
- Log2(fold change) S-adenosyl-L-methionine ([3]; metabolite S-adenosyl-L-methionine): 0.0000
- Log2(fold change) S-methyl-5'-thioadenosine ([3]; metabolite S-methyl-5'-thioadenosine): 0.4868
- Log2(fold change) SD ([3]; metabolite SD): -0.5679
- Log2(fold change) SDL ([3]; metabolite SDL): 0.0000
- Log2(fold change) SID ([3]; metabolite SID): -0.5481
- Log2(fold change) Sedoheptulose bisphosphate ([3]; metabolite Sedoheptulose bisphosphate): -0.1986
- Log2(fold change) Thiamine pyrophosphate ([3]; metabolite Thiamine pyrophosphate): -0.1355
- Log2(fold changes) UDP-D-glucose ([3]; metabolite UDP-D-glucose, log2 fold change): 0.0446
- Log2(fold changes) UDP-D-glucuronate ([3]; metabolite UDP-D-glucuronate, log2 fold change): -0.0014
- Log2(fold changes) UDP-N-acetyl-glucosamine ([3]; metabolite UDP-N-acetyl-glucosamine, log2 fold change): -0.0268
- Log2(fold changes) UDP ([3]; metabolite UDP, log2 fold change): -0.1898
- Log2(fold changes) UMP ([3]; metabolite UMP, log2 fold change): -0.0875
- Log2(fold changes) UTP ([3]; metabolite UTP, log2 fold change): 0.0000
- Log2(fold change) hydroxyphenylpyruvate ([3]; metabolite hydroxyphenylpyruvate): 0.0000
- Log2(fold change) hydroxyproline/Aminolevulinate ([3]; metabolite hydroxyproline/Aminolevulinate): -0.3323
- Log2(fold change) hypoxanthine ([3]; metabolite hypoxanthine): -0.1428
- Log2(fold change) indole ([3]; metabolite indole): 0.0000
- Log2(fold change) inosine ([3]; metabolite inosine): -0.4892
- Log2(fold change) isoleucine ([3]; metabolite isoleucine): 0.0000
- Log2(fold change) lactate ([3]; metabolite lactate): -0.3845
- Log2(fold change) leucine ([3]; metabolite leucine): 0.0000
- Log2(fold change) lysine ([3]; metabolite lysine): -0.8365
- Log2(fold change) malate ([3]; metabolite malate): -0.6264
- Log2(fold change) maleic acid ([3]; metabolite maleic acid): -0.6374
- Log2(fold change) methionine ([3]; metabolite methionine): -0.3116
- Log2(fold change) myo-inositol ([3]; metabolite myo-inositol): -0.4650
- Log2(fold change) nicotinamide mononucleotide ([3]; metabolite nicotinamide mononucleotide): -0.2358
- Log2(fold change) nicotinate ([3]; metabolite nicotinate): 0.0360
- Log2(fold change) ornithine ([3]; metabolite ornithine): -0.4311
- Log2(fold change) orotate ([3]; metabolite orotate): -0.0365
- Log2(fold change) orotidine-5'-phosphate ([3]; metabolite orotidine-5'-phosphate): -0.4342
- Log2(fold change) oxaloacetate ([3]; metabolite oxaloacetate): -0.0755
- Log2(fold change) p-aminobenzoate ([3]; metabolite p-aminobenzoate): 0.0000
- Log2(fold change) p-hydroxybenzoate ([3]; metabolite p-hydroxybenzoate): 0.0000
- Log2(fold change) pantothenate ([3]; metabolite pantothenate): -0.2337
- Log2(fold change) phenylalanine ([3]; metabolite phenylalanine): -0.4167
- Log2(fold change) phenylpyruvate ([3]; metabolite phenylpyruvate): 0.0000
- Log2(fold change) phosphoenolpyruvate ([3]; metabolite phosphoenolpyruvate): -0.3202
- Log2(fold change) prephenate ([3]; metabolite prephenate): -0.6614
- Log2(fold change) proline ([3]; metabolite proline): -0.2978
- Log2(fold change) pyridoxine ([3]; metabolite pyridoxine): -0.1996
- Log2(fold change) pyruvate ([3]; metabolite pyruvate): -0.7329
- Log2(fold change) riboflavin ([3]; metabolite riboflavin): 0.5336
- Log2(fold change) ribose ([3]; metabolite ribose): -0.3218
- Log2(fold change) ribose-phosphate ([3]; metabolite ribose-phosphate): -0.6165
- Log2(fold change) ribulose-5-phosphate ([3]; metabolite ribulose-5-phosphate): -0.5816
- Log2(fold change) serine ([3]; metabolite serine): -0.3504
- Log2(fold change) sn-glycerol-3-phosphate ([3]; metabolite sn-glycerol-3-phosphate): -0.3556
- Log2(fold change) succinate/Methylmalonic acid ([3]; metabolite succinate/Methylmalonic acid): -0.3870
- Log2(fold change) succinyl-CoA/methylmalonyl-CoA ([3]; metabolite succinyl-CoA/methylmalonyl-CoA): 0.0000
- Log2(fold change) taurine ([3]; metabolite taurine): -0.0411
- Log2(fold change) thiamine ([3]; metabolite thiamine): -0.2425
- Log2(fold change) threonine/homoserine ([3]; metabolite threonine/homoserine): -0.2222
- Log2(fold change) thymidine ([3]; metabolite thymidine): 0.0000
- Log2(fold changes) thymine ([3]; metabolite thymine, log2 fold change): 0.0000
- Log2(fold changes) trehalose-6-Phosphate ([3]; metabolite trehalose-6-Phosphate, log2 fold change): 0.0000
- Log2(fold changes) tryptophan ([3]; metabolite tryptophan, log2 fold change): -1.0924
- Log2(fold changes) tyrosine ([3]; metabolite tyrosine, log2 fold change): -0.3159
- Log2(fold changes) uridine ([3]; metabolite uridine, log2 fold change): 0.0000
